Measured values published in ChEMBL document CHEMBL4138265, “Synthesis of a Chloroalkene Dipeptide Isostere-Containing Peptidomimetic and Its Biological Application” (ACS Med Chem Lett, 2018).

Legend:
[1] = biological target: T1, Integrin alpha-V/beta-3 (Homo sapiens, UniProt P05106+P06756); assay: Inhibition of vitronectin binding to human integrin alphaVbeta3 measured after 4 hrs by ELISA; type: protein-complex assay
[2] = biological target: T1, Integrin alpha-V/beta-3; assay: Inhibition of vitronectin binding to integrin alphaVbeta3 in HDF pretreated for 20 mins followed by vitronectin addition measured after 40 mins by crystal violet staining based assay; type: protein-complex assay
[3] = Stability in human serum at 1 mM incubated for 15 mins measured up to 180 mins by RP-HPLC method; type: ADME, cell-free; settings: 0.25 h, 1000 µM

T1 sequence (P05106 27-788 limits assumed): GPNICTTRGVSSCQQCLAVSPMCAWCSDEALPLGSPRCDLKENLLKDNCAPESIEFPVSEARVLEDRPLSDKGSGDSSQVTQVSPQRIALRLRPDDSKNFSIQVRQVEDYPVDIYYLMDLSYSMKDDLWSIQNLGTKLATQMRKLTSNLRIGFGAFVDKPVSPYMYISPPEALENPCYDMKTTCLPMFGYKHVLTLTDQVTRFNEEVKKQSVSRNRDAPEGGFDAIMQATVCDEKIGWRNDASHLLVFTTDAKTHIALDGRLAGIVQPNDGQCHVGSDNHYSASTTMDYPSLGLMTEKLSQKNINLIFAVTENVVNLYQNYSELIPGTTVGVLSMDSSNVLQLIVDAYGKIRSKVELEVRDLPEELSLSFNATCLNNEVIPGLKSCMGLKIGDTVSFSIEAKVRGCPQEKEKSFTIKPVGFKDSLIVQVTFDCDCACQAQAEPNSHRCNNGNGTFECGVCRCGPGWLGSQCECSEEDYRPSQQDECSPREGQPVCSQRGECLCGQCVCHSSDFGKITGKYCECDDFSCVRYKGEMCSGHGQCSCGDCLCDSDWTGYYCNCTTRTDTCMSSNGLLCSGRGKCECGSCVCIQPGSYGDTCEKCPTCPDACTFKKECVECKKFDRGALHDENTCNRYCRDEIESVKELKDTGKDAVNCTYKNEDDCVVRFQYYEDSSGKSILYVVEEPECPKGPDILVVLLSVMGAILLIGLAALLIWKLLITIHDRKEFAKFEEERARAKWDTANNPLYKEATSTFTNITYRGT
T1 sequence (P06756 31-889 limits assumed): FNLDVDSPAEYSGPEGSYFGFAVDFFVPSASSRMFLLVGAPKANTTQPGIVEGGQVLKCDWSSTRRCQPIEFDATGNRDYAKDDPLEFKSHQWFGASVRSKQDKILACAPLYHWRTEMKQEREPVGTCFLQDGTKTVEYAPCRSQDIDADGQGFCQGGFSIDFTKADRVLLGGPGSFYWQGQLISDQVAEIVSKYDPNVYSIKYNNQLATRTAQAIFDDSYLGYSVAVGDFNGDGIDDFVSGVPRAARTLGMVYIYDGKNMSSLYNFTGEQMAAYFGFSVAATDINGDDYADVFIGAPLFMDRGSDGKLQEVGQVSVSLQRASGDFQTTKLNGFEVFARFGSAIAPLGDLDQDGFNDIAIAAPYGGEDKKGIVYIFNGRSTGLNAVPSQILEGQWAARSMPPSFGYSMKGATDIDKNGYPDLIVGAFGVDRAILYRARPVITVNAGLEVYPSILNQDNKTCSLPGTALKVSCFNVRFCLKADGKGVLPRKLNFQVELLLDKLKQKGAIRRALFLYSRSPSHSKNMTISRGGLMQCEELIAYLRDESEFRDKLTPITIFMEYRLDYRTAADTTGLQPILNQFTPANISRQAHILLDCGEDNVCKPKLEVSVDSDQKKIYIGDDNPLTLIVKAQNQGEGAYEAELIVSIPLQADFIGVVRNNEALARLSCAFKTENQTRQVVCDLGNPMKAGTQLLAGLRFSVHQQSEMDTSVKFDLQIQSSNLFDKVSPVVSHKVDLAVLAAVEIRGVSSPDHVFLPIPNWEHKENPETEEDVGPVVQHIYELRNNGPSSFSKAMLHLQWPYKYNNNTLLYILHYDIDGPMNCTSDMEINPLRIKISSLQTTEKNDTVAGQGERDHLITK
T1 sequence (P06756 891-1048 limits assumed): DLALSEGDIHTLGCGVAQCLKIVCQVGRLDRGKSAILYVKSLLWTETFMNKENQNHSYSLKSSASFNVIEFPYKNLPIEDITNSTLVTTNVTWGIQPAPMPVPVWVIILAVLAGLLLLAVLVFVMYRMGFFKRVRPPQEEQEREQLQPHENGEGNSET

| IC50 [1] [nM] | IC50 [2] [nM] | Stability [3] | Structure (SMILES) |
| --- | --- | --- | --- |
| 3.6 |  |  | CC(C)[C@@H]1/C=C/[C@@H](Cc2ccccc2)NC(=O)[C@H](CC(=O)O)NC(=O)CNC(=O)[C@H](CCCNC(=N)N)NC1=O |
| 2.4 |  |  | C/C1=C\[C@@H](Cc2ccccc2)NC(=O)[C@H](CC(=O)O)NC(=O)CNC(=O)[C@H](CCCNC(=N)N)NC(=O)[C@@H]1C(C)C |
|  | 0.497 | Stable | CC(C)[C@@H]1/C=C(\Cl)[C@@H](Cc2ccccc2)NC(=O)[C@H](CC(=O)O)NC(=O)CNC(=O)[C@H](CCCNC(=N)N)NC1=O |
